Measured values: ChEMBL document CHEMBL4811281, “Identification of aryl sulfonamides as novel and potent inhibitors of NaV1.5” (Bioorg Med Chem Lett, 2021)

Legend:
[1] = Intrinsic clearance in human liver microsomes; assay type: ADME, Microsome; settings: read-out: CLH
[2] = molecular target: T1, Sodium channel protein type 5 subunit alpha (Homo sapiens, UniProt Q14524); test: Inhibition of human Nav1.5 by automated voltage clamp electrophysiology
[3] = Intrinsic clearance in mouse liver microsomes; assay type: ADME, Microsome; settings: read-out: CLH
[4] = AUC in FVB mouse at 10 mg/kg, po; assay type: ADME, organism-based; set-up: dose 10 mg/kg; settings: in vivo
Cytochrome P450 3A4 = Cytochrome P450 3A4 (Homo sapiens, UniProt P08684); test: Inhibition of CYP3A4 (unknown origin); assay type: ADME
[5] = Inhibition of human Nav1.5 VSD4 F1759A mutant by automated voltage clamp electrophysiology
[6] = molecular target: T1, Sodium channel protein type 5 subunit alpha; test: Displacement of [3H]BNZA from Nav1.5 (unknown origin)
[7] = Half life in FVB mouse at 1 mg/kg, iv; assay type: ADME, organism-based; settings: in vivo
[8] = Cmax in FVB mouse at 10 mg/kg, po; assay type: ADME, organism-based; set-up: route oral, dose 10 mg/kg; settings: in vivo
Cytochrome P450 2C9 = Cytochrome P450 2C9 (Homo sapiens, UniProt P11712); test: Inhibition of CYP2C9 (unknown origin); assay type: ADME
[9] = AUC in FVB mouse at 1 mg/kg, iv; assay type: ADME, organism-based; set-up: dose 1 mg/kg; settings: in vivo
Cytochrome P450 2D6 = Cytochrome P450 2D6 (Homo sapiens, UniProt P10635); test: Inhibition of CYP2D6 (unknown origin); assay type: ADME
[10] = Volume of distribution at steady state in FVB mouse at 1 mg/kg, iv; assay type: ADME, organism-based; settings: in vivo, read-out: Vdss
Cytochrome P450 1A2 = Cytochrome P450 1A2 (Homo sapiens, UniProt P05177); test: Inhibition of CYP1A2 (unknown origin); assay type: ADME
[11] = Half life in FVB mouse at 10 mg/kg, po; assay type: ADME, organism-based; settings: in vivo
[12] = Drug uptake in FVB mouse brain at 10 mg/kg, po measured after 2 hrs; assay type: ADME, organism-based; settings: read-out: Drug uptake
[13] = Oral bioavailability in FVB mouse at 10 mg/kg; assay type: ADME, organism-based; settings: in vivo
[14] = Ratio of drug level in brain to plasma in FVB mouse at 10 mg/kg, po measured after 2 hrs; assay type: ADME, organism-based; settings: read-out: BPR
[15] = Plasma concentration in FVB mouse at 10 mg/kg, po measured after 2 hrs; assay type: ADME, organism-based
[16] = Clearance in FVB mouse at 1 mg/kg, iv; assay type: ADME, organism-based; settings: in vivo
Cytochrome P450 2C19 = Cytochrome P450 2C19 (Homo sapiens, UniProt P33261); test: Inhibition of CYP2C19 (unknown origin); assay type: ADME
[17] = Inhibition of human Nav1.5 VSD4 R1631A mutant by automated voltage clamp electrophysiology
Homo sapiens = organism: Homo sapiens; test: Selectivity ratio of IC50 for inhibition of human Nav1.5 VSD4 F1759A mutant to IC50 for inhibition of human Nav1.5 by automated voltage clamp electrophysiology

T1 sequence (Q14524 whole entry): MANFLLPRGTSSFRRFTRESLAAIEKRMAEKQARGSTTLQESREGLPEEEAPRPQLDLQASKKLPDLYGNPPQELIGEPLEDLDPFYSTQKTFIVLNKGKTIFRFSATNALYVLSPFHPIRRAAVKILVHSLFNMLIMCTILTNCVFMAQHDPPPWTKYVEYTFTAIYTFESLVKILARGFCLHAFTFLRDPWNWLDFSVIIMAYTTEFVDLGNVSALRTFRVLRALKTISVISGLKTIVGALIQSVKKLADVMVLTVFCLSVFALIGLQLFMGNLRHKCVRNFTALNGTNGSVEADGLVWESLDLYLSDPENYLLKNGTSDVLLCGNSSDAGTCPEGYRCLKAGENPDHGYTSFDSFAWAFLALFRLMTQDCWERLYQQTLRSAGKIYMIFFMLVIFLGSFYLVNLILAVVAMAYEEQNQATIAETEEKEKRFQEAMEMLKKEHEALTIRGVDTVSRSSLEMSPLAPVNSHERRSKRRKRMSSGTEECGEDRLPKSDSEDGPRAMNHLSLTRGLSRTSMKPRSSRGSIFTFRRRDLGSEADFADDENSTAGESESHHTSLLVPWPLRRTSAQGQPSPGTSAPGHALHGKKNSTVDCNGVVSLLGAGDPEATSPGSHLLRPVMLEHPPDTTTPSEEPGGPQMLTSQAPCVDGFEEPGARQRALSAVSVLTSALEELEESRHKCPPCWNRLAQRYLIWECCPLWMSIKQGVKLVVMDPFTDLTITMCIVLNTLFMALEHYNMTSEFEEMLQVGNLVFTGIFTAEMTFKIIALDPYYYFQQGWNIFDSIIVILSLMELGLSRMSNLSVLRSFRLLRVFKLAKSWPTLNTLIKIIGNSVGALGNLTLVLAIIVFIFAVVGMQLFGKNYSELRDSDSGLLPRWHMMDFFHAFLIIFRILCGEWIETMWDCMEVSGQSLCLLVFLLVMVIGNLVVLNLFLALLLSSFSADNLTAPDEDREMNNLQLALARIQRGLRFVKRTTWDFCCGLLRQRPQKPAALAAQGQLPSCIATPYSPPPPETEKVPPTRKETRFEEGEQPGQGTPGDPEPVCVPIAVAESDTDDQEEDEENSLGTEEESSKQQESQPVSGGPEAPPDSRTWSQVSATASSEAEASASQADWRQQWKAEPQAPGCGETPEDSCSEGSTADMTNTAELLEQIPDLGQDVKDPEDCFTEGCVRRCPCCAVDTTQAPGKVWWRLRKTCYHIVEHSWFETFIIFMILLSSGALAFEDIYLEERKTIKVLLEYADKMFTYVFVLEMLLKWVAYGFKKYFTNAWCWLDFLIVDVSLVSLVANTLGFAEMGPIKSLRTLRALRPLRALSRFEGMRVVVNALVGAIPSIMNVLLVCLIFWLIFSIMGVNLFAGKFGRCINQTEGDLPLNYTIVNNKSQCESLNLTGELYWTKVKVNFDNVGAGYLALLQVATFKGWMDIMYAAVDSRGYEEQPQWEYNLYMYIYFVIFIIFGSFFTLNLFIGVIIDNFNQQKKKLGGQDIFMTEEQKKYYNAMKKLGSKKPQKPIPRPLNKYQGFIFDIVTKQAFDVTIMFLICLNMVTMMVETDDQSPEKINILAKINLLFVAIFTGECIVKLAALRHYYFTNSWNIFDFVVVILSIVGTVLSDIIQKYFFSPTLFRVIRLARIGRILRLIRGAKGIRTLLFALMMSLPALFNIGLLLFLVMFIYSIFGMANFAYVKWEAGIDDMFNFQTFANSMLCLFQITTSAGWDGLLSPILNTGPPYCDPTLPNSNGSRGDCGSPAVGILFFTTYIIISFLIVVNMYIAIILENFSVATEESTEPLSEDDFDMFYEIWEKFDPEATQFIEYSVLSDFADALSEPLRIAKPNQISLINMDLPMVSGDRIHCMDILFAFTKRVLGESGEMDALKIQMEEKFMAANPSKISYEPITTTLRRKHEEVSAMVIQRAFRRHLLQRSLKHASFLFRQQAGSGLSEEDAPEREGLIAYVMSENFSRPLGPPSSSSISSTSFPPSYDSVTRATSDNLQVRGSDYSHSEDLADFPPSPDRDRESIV
Sequence of Cytochrome P450 1A2 (P05177 whole entry): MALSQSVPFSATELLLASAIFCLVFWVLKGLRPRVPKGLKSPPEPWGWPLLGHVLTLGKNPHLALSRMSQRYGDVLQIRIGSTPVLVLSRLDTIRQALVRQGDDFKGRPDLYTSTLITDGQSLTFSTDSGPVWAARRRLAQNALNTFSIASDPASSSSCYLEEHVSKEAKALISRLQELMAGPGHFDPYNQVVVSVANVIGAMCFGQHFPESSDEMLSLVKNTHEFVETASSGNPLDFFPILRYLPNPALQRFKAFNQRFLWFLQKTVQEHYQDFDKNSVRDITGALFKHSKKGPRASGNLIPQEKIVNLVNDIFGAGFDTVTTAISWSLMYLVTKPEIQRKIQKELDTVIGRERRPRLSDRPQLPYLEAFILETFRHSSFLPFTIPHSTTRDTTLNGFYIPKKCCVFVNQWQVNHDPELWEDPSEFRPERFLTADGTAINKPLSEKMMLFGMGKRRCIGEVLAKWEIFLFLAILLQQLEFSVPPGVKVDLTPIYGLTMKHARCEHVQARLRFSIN
Sequence of Cytochrome P450 2C19 (P33261 whole entry): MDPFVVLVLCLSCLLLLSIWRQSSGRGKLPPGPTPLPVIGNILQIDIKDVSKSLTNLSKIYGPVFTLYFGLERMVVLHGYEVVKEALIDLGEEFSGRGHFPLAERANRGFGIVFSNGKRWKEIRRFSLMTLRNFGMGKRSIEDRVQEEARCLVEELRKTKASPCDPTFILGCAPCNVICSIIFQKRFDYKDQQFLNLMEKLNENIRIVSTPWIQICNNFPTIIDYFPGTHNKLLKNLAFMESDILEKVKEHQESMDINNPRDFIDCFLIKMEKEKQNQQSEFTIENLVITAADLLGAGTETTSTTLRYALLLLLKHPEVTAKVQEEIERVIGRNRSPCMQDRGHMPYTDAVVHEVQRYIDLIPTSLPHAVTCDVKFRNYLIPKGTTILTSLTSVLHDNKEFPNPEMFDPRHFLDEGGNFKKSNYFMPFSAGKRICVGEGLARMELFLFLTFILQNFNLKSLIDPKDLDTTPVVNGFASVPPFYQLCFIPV
Sequence of Cytochrome P450 2D6 (P10635 whole entry): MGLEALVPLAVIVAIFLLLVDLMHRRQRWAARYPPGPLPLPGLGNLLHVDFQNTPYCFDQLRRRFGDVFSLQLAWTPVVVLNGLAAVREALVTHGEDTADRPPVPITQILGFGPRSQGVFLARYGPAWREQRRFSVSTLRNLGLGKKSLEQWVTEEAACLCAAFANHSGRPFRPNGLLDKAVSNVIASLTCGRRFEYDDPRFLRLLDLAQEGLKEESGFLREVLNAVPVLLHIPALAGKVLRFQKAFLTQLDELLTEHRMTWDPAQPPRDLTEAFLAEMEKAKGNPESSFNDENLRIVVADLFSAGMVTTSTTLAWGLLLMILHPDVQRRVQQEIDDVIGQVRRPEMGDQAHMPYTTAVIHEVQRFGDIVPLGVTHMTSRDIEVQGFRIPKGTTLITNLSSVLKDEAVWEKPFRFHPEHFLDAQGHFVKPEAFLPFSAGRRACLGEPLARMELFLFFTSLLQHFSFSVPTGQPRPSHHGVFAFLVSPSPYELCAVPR
Sequence of Cytochrome P450 2C9 (P11712 whole entry): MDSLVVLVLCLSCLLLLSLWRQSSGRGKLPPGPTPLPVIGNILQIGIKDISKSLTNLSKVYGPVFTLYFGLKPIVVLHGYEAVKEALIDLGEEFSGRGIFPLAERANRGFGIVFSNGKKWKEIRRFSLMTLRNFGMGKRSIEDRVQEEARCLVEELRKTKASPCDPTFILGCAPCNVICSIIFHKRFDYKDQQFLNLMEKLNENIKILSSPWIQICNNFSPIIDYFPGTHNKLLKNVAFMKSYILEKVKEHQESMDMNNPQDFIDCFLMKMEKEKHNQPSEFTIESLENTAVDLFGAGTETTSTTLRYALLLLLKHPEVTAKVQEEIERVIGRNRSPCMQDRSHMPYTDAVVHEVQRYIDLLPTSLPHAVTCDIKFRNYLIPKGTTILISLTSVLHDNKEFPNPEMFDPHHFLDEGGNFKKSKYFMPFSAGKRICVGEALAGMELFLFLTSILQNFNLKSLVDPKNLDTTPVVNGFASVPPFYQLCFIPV
Sequence of Cytochrome P450 3A4 (P08684 whole entry): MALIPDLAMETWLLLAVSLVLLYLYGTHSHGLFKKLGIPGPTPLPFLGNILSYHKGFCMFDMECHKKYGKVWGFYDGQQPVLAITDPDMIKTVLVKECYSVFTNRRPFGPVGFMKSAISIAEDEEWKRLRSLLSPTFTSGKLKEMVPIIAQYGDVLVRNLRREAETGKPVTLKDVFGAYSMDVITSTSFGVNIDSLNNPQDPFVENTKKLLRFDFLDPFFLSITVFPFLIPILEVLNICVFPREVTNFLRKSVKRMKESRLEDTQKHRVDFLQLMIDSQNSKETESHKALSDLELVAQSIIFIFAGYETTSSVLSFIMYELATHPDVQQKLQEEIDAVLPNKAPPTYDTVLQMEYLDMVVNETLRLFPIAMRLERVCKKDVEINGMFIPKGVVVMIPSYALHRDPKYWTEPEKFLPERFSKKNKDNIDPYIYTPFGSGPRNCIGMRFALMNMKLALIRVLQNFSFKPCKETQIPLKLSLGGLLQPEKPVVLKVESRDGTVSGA

SMILES: O=S(=O)(Nc1cccc(F)n1)c1cc(F)c(O[C@H]2CCN(CC(F)(F)F)C[C@@H]2c2cccc(F)c2)cc1F (racemic)
- CLint scaled [1]: 13 mL/min/kg
- IC50 [2]: 460 nM
- CLint scaled [3]: 53 mL/min/kg

SMILES: O=S(=O)(Nc1cccc(F)n1)c1cc(F)c(OC2CCN(CC(F)(F)F)CC2c2ccc(F)c(F)c2)cc1F (single isomer, unassigned; (-)) [listing 1 of 2 here]
- CLint scaled [1]: 9 mL/min/kg
- AUC [4]: 72 µM·h
- inhibition (INH) (Cytochrome P450 3A4): Not Active
- IC50 [5]: > 10000 nM
- Ki [6]: 2020 nM
- half-life [7]: 4.3 h
- Cmax [8]: 5.2 µM
- IC50 (Cytochrome P450 2C9): 6900 nM
- AUC [9]: 16 µM·h
- inhibition (INH) (Cytochrome P450 2D6): Not Active
- Vd [10]: 0.6 L/kg
- inhibition (INH) (Cytochrome P450 1A2): Not Active
- half-life [11]: 4.1 h
- concentration at 2 h [12]: 2.62 µM
- IC50 [2]: 240 nM
- bioavailability [13]: 45%
- CLint scaled [3]: 50 mL/min/kg
- Kp at 2 h [14]: 0.28
- concentration at 2 h [15]: 9.37 µM
- clearance [16]: 1.8 mL/min/kg
- inhibition (INH) (Cytochrome P450 2C19): Not Active

SMILES: O=S(=O)(Nc1cscn1)c1cc(F)c(O[C@H]2CCN(CC(F)(F)F)C[C@@H]2c2ccccc2)cc1F (racemic)
- IC50 [17]: 1170 nM
- IC50 [2]: 1180 nM

SMILES: O=S(=O)(Nc1cccc(F)n1)c1cc(F)c(OC2CCN(CC(F)(F)F)CC2c2ccc(F)c(F)c2)cc1F (single isomer, unassigned; (-)) [listing 2 of 2 here]
- Ratio IC50 (Homo sapiens): > 40
